Test results as given in EP0133407A1, “Acetylene derivatives having an enzyme-inhibiting activity, their preparation and their use as medicines” (Etablissement Public dit: CENTRE NATIONAL DE LA RECHERCHE …, priority 1983, dated 1985).

Experiments:
Hepatomes de rat = test: Cell growth inhibition, transformed cells: rat hepatomas; type: cell-based
From the text: (§1) Les tableaux 1 et 2 ci-après donnent le résultat de ces tests qui portent sur trois types de cellules transformées. Les chiffres indiqués représentent le pourcentage d'inhibition de la croissance de cellules traitées par des doses de plus en plus fortes de composé 6a (chlorhydrate) par rapport à celles des mêmes cellules non traitées.

[1] = test system: mélanome DAU d'origine humaine; test: In vivo tumour growth: human melanoma DAU in nude mice; set-up: species or system souris nude; souris traitées présentant un retard dans le développement tumoral: unit not given here; conditions: 5.10^5 melanoma DAU cells; 2 x 15 mg/kg on day 1, 2 x 6 mg/kg days 2 to 7; versus untreated controls
Protocol: (§2) Deux types de tumeurs ont été utilisés : • - un carcinome de Lewis (sur souris swiss), • - un mélanome DAU d'origine humaine (sur souris nude).
Les souris ont reçu une injection de 5.10^5 cellules de mélanome DAU Celles traitées ont reçu : • - 2 x 15 mg/kg le premier jour, • - 2 x 6 mg/kg du deuxième au septième jour.

carcinome de Lewis = test: In vivo tumour growth: Lewis carcinoma in mice; set-up: species or system souris swiss; conditions: 3.10^5 Lewis carcinoma cells; daily 6 mg/kg or 12 mg/kg
From the text: as §2
Le test est effectué sur des souris auxquelles 3.10^5 cellules de carcinome de Lewis ont été inoculées.

[2] = test system: Fibroblastes humains MRC 5; test: Cell growth inhibition, normal cells: MRC 5 fibroblasts; type: cell-based
[3] = test system: Cellules d'embryon de poulet; test: Cell growth inhibition, normal cells: chick embryo cells; type: cell-based
[4] = test system: cellules d'ascites de KREBS (carcinome); test: Survival of mice injected with Krebs ascites cells; type: in vivo, souris swiss; set-up: taux de survie: unit not given here
From the text: (§3) Les tests dont les résultats sont donnés ci-dessous ont été réalisés avec des solutions du composé 6a (sous forme de chlorhydrate). Dans ces tests, on a étudié l'activité vis à vis de la croissance tumorale (carcinome et mélanome) et la survie de souris swiss auxquelles ont été injectées des quantités variables de cellules d'ascites de Krebs.
Les résultats des tests ont été obtenus principalement à partir de souris' auxquelles ont été injectées des cellules d'ascites de KREBS (carcinome) dont l'origine a été décrite par G. KLEIN et E. KLEIN Cancer Research 1951-11-466.

Stability of solutions = type: physicochemical; conditions: concentrated solutions
From the text: Il convient de préciser que les solutions concentrées du produit 6a sont instables. Le produit est conservé sous forme de solutions diluées, par exemple le chlorhydrate peut être conservé en solution aqueuse diluée.

NRK LA31 à 33° = test: Cell growth inhibition, transformed cells: NRK LA31 at 33°; type: cell-based, rat
From the text: as §1

[5] = test system: Cellules d'embryon de poulet; test: Transformation of chick embryo cells induced by Rous sarcoma virus; type: cell-based
From the text: (§4) Le produit est efficace contre la transformation des cellules d'embryon de poulet induite par le virus du sarcome de ROUS.

Cellules HeLa humaines = test: Cell growth inhibition, transformed cells: HeLa; type: cell-based
From the text: as §1

[6] = test system: Cellules de rein de rat NRK B 77; test: Cell growth inhibition, transformed cells: NRK B 77; type: cell-based
From the text: as §1

virus du sarcome de ROUS = test: Replication of Rous sarcoma virus; type: cell-based
From the text: as §4

[7] = test system: cellules de mélanomes humains M1 DOR; test: Complementary in vitro test, dead cells after four days of growth: melanoma M1 DOR; type: cell-based; conditions: untreated 24, 5760 min
[8] = test system: cellules de mélanomes humains M3 DAU; test: Complementary in vitro test, dead cells after four days of growth: melanoma M3 DAU; type: cell-based; conditions: untreated 6, 5760 min
From the text: as §1

[9] = test system: clone FAZA 967 de l'hépatome de rat REUBER H 35; test: Toxicity on hepatoma clone FAZA 967 (LDH, GOT, GPT assayed in the medium); type: cell-based
cellules NRK (normales) = test: Growth inhibition in tissue culture, normal NRK cells; type: cell-based; conditions: 6a solutions made by the second method (example 2) compared with product of example 1
[10] = test system: cellules de leucémie L1210; test: Survival of mice inoculated with leukaemia L1210 cells; type: in vivo, souris; conditions: 3.10^5 L1210 cells; 6 mg/kg for 7 days
From the text: Une étude a aussi été faite sur des souris auxquelles avaient été inoculées 3.10^5 cellules de leucémie L1210.

[11] = Acute toxicity (DL50) in mice; set-up: species or system souris swiss; conditions: mouse, in vivo, two independent measurements
Protocol: as §3
Toxicité aigüe : La DL50 du composé 6a (chlorhydrate) déterminée sur ces souris par deux mesures indépendantes est de 60 mg/kg.

[12] = test system: Cellules de la membrane amniotique humaine; test: Cell growth inhibition / toxicity, normal cells: human amniotic membrane cells; type: cell-based
[13] = test system: lignées de lymphomes de souris; test: In vivo activity against mouse lymphoma lines; conditions: certain mouse lymphoma lines
[14] = concentration 1,5.10^-3 (unit not given)
[15] = concentration 2.10^-3 (unit not given)
[16] = concentration 3.10^-3 (unit not given)
[17] = concentration 4.10^-3 (unit not given)
[18] = concentration 5.10^-3 (unit not given)

CC(C)(N)C#CC=O [composé 6a]
% d'inhibition de la croissance cellulaire (Hepatomes de rat; 2.10^-4 M): 50%
% d'inhibition de la croissance cellulaire (Hepatomes de rat; 6.10^-4 M): 60%
retard dans le développement tumoral [1]: dizaine
souris traitées présentant un retard dans le développement tumoral [1]: 60
croissance tumorale (carcinome de Lewis): net ralentissement de la croissance tumorale
% d'inhibition de la croissance cellulaire ([2]; 1.10^-4 M): 0%
% d'inhibition de la croissance cellulaire ([2]; 2.10^-4 M): 0%
% d'inhibition de la croissance cellulaire ([2]; 4.10^-4 M): 0%
% d'inhibition de la croissance cellulaire ([2]; 5.10^-5 M): 0%
% d'inhibition de la croissance cellulaire ([2]; 6.10^-4 M): 18%
% d'inhibition de la croissance cellulaire ([3]; 1.10^-4 M): 0%
% d'inhibition de la croissance cellulaire ([3]; 2.10^-4 M): 0%
% d'inhibition de la croissance cellulaire ([3]; 4.10^-4 M): 10%
% d'inhibition de la croissance cellulaire ([3]; 5.10^-5 M): 0%
% d'inhibition de la croissance cellulaire ([3]; 6.10^-4 M): 12%
survie ([4]; 5.10^5 cells inoculated, 6 mg/kg for 7 days): provoque un retard dans la mort mais n'augmente pas le taux de survie
taux de survie ([4]; 5.10^5 cells inoculated, 6 mg/kg, treatment of 21 days): ≤ 90
survie ([4]; 5.10^5 cells, 2 x 15 mg/kg on day 1 then 2 x 6 mg/kg the 6 following days, compared with 21-day treatment): Le même effet
survie ([4]; 10 cellules (so in the source), 2 x 15 mg/kg on day 1 then 2 x 6 mg/kg the 6 following days): encore suffisants
survie ([4]; inoculation of 5.10^6 cells, 2 x 15 mg/kg on day 1 then 2 x 6 mg/kg the 6 following days): efficacité est moindre
survie ([4]; inoculation of 10 cellules (so in the source), 6 mg/kg daily for 7 days): guérison complète jusque 6 mois
stabilité des solutions (Stability of solutions): instables
% d'inhibition de la croissance cellulaire (NRK LA31 à 33°; 1.10^-4 M): 0%
% d'inhibition de la croissance cellulaire (NRK LA31 à 33°; 2.10^-4 M): 11%
% d'inhibition de la croissance cellulaire (NRK LA31 à 33°; 4.10^-4 M): 63%
% d'inhibition de la croissance cellulaire (NRK LA31 à 33°; 5.10^-5 M): 0%
% d'inhibition de la croissance cellulaire (NRK LA31 à 33°; 6.10^-4 M): Mort
efficacité contre la transformation des cellules induite par le virus du sarcome de ROUS [5]: efficace
% d'inhibition de la croissance cellulaire (Cellules HeLa humaines; 1.10^-4 M): 18%
% d'inhibition de la croissance cellulaire (Cellules HeLa humaines; 2.10^-4 M): 36%
% d'inhibition de la croissance cellulaire (Cellules HeLa humaines; 4.10^-4 M): 78%
% d'inhibition de la croissance cellulaire (Cellules HeLa humaines; 5.10^-5 M): 0%
% d'inhibition de la croissance cellulaire (Cellules HeLa humaines; 6.10^-4 M): 91%
% d'inhibition de la croissance cellulaire ([6]; 1.10^-4 M): 16%
% d'inhibition de la croissance cellulaire ([6]; 2.10^-4 M): 31%
% d'inhibition de la croissance cellulaire ([6]; 4.10^-4 M): 57%
% d'inhibition de la croissance cellulaire ([6]; 5.10^-5 M): 0%
inhibition de la croissance en culture de tissus ([6]; 6a solutions made by the second method (example 2) compared with product of example 1, NRK-B77 (transformées)): activité en tous points comparable à celle observée avec le produit de l'exemple 1
% d'inhibition de la croissance cellulaire ([6]; 6.10^-4 M): 79%
réplication du virus (virus du sarcome de ROUS): n'est pas inhibée
% de cellules mortes après quatre jours de croissance [7, 14]: 21%
% de cellules mortes après quatre jours de croissance [7, 15]: 28%
% de cellules mortes après quatre jours de croissance [7, 16]: 24%
% de cellules mortes après quatre jours de croissance [7, 17]: 26%
% de cellules mortes après quatre jours de croissance [7, 18]: 23%
% de cellules mortes après quatre jours de croissance [8, 14]: 24%
% de cellules mortes après quatre jours de croissance [8, 15]: 47%
% de cellules mortes après quatre jours de croissance [8, 16]: 92%
% de cellules mortes après quatre jours de croissance [8, 17]: 98%
% de cellules mortes après quatre jours de croissance [8, 18]: 98%
toxicité du produit, estimée par dosage dans le milieu des enzymes LDH, GOT et GPT [9]: aucune toxicité
inhibition de la croissance en culture de tissus (cellules NRK (normales)): activité en tous points comparable à celle observée avec le produit de l'exemple 1
survie [10]: le même effet que dans le cas du carcinome
LD50 [11]: 60 mg/kg
% d'inhibition de la croissance cellulaire ([12]; 6.10^-4 M): 0%
effet sur la croissance et sur la morphologie des cellules ([12]; concentrations de 5.10 et de 10^-4 mole-litre ^-1): aucun effet

CCOC(C#CC(C)(C)N)OCC [composé 9a]
activité in vivo [13]: actif sélectivement
